pKd: −log10 of the molar value.
Tests used:
Format in all cases: binding
[1] = Fluorescence titration of indicator with calcium ions; conditions: for pKd: Table 3 binding constant, read-out: Kd Ca^2+; for F = F(bind)/F0, Ca^2+: fluorescent response to binding, in brackets
[2] = Fluorescence titration of indicator with zinc ions; conditions: for pKd: Table 3 binding constant, read-out: Kd Zn^2+; for F = F(bind)/F0, Zn^2+: fluorescent response to binding, in brackets
[3] = Fluorescence titration of indicator with cadmium ions in cuvettes; conditions: for F = F(bind)/F0, Cd^2+: fluorescent response to binding, in brackets
Procedure: (§1) A dye stock (5.0×10^−4 M) solution of Compound 109 was prepared in DMSO. Lanthanide, Lead, cadmium and mercury ion solutions from 0-40 nM were prepared in disposable cuvettes by diluting a 100 mM metal ion stock solutions to a final volume of 2 mL with 100 mM MOPS (pH7). For the lanthanide titration, dye stock was diluted to give a final concentration of 50 nM. For the cadmium titration, dye stock was added to give a final concentration of 2.5×10^−7 M. For the mercury titrations, dye stock was added to give a final concentration of 2.5×10^−7 M. Samples were excited at 492 nm and fluorescence was recorded at 517 nm.

[4] = Fluorescence titration of indicator with lanthanide ions in cuvettes; conditions: for F = F(bind)/F0, La^3+: fluorescent response to binding, in brackets
Procedure: as §1

[5] = Fluorescence titration of indicator with lead ions; conditions: for pKd: Table 3 binding constant, read-out: Kd Pb^2+; for F = F(bind)/F0, Pb^2+: fluorescent response to binding, in brackets
Procedure: as §1

[6] = Fluorescence titration of indicator with manganese ions; conditions: for pKd: Table 3 binding constant, read-out: Kd Mn^2+; for F = F(bind)/F0, Mn^2+: fluorescent response to binding, in brackets
[7] = Fluorescence titration of indicator with mercury ions in cuvettes
Procedure: as §1

[8] = Table 3 binding constant, read-out: Kd Cd^2+
[9] = Table 3 binding constant, read-out: Kd La^3+

Compound | pKd [1] | F = F(bind)/F0, Ca^2+ [1] | pKd [2] | F = F(bind)/F0, Zn^2+ [2] | pKd [3, 8] | pKd [4, 9] | F = F(bind)/F0, La^3+ [4] | pKd [5] | F = F(bind)/F0, Pb^2+ [5] | pKd [6] | F = F(bind)/F0, Mn^2+ [6] | pKd ([3]; 100 mM MOPS pH7, dye 2.5×10^−7 M, excited 492 nm, recorded 517 nm, read-out: Kd cadmium (Cd(II))) | F = F(bind)/F0, Cd^2+ [3] | pKd ([4]; 100 mM MOPS pH7, dye 50 nM, excited 492 nm, recorded 517 nm, read-out: Kd lanthanide (La(III))) | pKd ([7]; 100 mM MOPS pH7, dye 2.5×10^−7 M, excited 492 nm, recorded 517 nm, read-out: Kd mercury (Hg2+)) | pKd ([7]; Table 3 binding constant, read-out: Kd Hg^2+) | F = F(bind)/F0, Hg^2+ ([7]; fluorescent response to binding, in brackets)
O=C([O-])CN(CC(=O)O)c1ccc(C2=c3cc4c5c(c3Oc3c2cc2c6c3CCCN6CCC2)CCC[N+]=5CCC4)cc1OCCOCCOc1ccccc1N(CC(=O)O)CC(=O)O [Compound 115] | 4.17 | 114 | 4.54 | 20 | 6.48 | 6.45 | 32 | 6.72 | 33 | 3.86 | 2.5 | – | – | – | – | – | –
O=C([O-])CN(CC(=O)[O-])c1ccccc1OCCOCCOc1cc(-c2c3cc(F)c(=O)cc-3oc3cc([O-])c(F)cc23)ccc1N(CC(=O)[O-])CC(=O)[O-].[K+].[K+].[K+].[K+].[K+] [Compound 109] | 4.67 | 68 | 4.57 | 8.8 | 7.21 | 8.00 | 47 | 4.41 | 20 | – | – | 7.21 | 11 | 7.99 | 5.67 | 5.67 | 20
CN(C)c1ccc2c(-c3ccc(N(CC(=O)[O-])CC(=O)O)c(OCCOCCOc4ccccc4N(CC(=O)O)CC(=O)O)c3)c3ccc(=[N+](C)C)cc-3oc2c1 [Compound 112] | 4.35 | 161 | 4.45 | 17 | 6.40 | 6.44 | 36 | 5.26 | 29 | 4.10 | 1.82 | – | 39 | – | – | – | –
